Structures are written as SMILES. Activity calls are given as the source filed them.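 How the source made its calls: active means IC50 at or below 10 µM; inactive means IC50 above 10 µM.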

As a reminder, the IC50 is the concentration that gives 50% inhibition.

In the test the target is Induced myeloid leukemia cell differentiation protein Mcl-1 (Homo sapiens) (UniProt Q07820). Kind of test: blockers of MCL1–BIM BH3 interaction – biochemical, fluorescence polarization, assay provider data, powder samples, late-stage follow-up (AID 493086). To be noted: GST-MCL1 / FITC-BIM-BH3 fluorescence polarization. In general terms: Fluorescence polarisation rises when a labelled molecule tumbles more slowly, as on binding a larger partner.
Sequence of Induced myeloid leukemia cell differentiation protein Mcl-1 (Homo sapiens) (Q07820 whole entry, looked up): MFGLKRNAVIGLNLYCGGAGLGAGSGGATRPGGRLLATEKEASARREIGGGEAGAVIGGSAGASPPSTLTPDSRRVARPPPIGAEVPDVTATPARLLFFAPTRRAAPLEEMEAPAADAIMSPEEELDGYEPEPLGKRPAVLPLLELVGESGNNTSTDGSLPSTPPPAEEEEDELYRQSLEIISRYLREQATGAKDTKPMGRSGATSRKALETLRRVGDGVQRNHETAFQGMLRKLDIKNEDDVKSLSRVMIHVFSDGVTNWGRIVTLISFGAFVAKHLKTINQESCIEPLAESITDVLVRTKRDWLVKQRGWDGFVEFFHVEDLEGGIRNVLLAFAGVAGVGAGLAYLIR

As to `O=C(Nc1cccc(S(=O)(=O)NC2=NCCCCC2)c1)c1cc(-c2ccco2)nc2ccccc12`, the IC50 is > 20 µM (inactive).

On to `O=C(Nc1ccccc1N1CCOCC1)c1cc(-c2ccco2)nc2ccccc12`, for which the IC50 result was “inactive”. The same measure for `COc1ccc(Cc2nnc(NC(=O)Cc3cccs3)s2)cc1OC`: > 20 µM (inactive); for `Cc1ccc2nc(NC(=O)c3cc(-c4ccco4)nc4ccccc34)sc2c1`: > 20 µM (inactive); for `COc1ccc(Cc2nnc(NC(=O)Cc3ccc(Oc4ccccc4)cc3)s2)cc1OC`: > 20 µM (inactive). On to `CCN(CC)CCNC(=O)c1cc(-c2ccco2)nc2ccccc12`, for which the IC50 was > 20 µM (inactive).

For `COc1ccc(Cc2nnc(NC(=O)C(F)c3ccccc3)s2)cc1OC` (configuration not stated), the IC50 is > 20 µM (inactive). In the case of `Cc1ccc(-c2cc(C(=O)Nc3ccccc3C)c3ccccc3n2)o1` it was > 20 µM (inactive). With `Cc1ccc(S(=O)(=O)N(C)C)cc1NC(=O)c1cc(-c2ccco2)nc2ccccc12`, the IC50 was > 20 µM (inactive). The same measure for `COC(=O)C1CCN(C(=O)c2cc(-c3ccco3)nc3ccccc23)CC1`: 7.3 µM; for `CCOc1cc(N2CCOCC2)c(OCC)cc1NC(=O)c1cc(-c2ccco2)nc2ccccc12`: > 20 µM (inactive); for `COc1ccc(Cc2nnc(NC(=O)CCc3cccs3)s2)cc1OC`: > 20 µM (inactive).

As for `Cc1ccc(-c2cc(C(=O)NCCCn3ccnc3)c3cc(Br)ccc3n2)o1`, the IC50 entry was “inactive”. The same measure for `O=C(NC1CCC(O)CC1)c1cc(-c2ccco2)nc2ccccc12` (configuration not stated): “inactive”. In the case of `COc1ccc(NC(=O)c2cc(-c3ccc(C)o3)nc3ccccc23)c(OC)c1`, the IC50 is > 20 µM (inactive).

Regarding `Cc1ccc(-c2cc(C(=O)NCCN3CCOCC3)c3ccccc3n2)o1`, the IC50 is > 20 µM (inactive).

In the case of `CCCCN(C(=O)c1cc(-c2ccco2)nc2ccccc12)c1c(N)n(CCCC)c(=O)[nH]c1=O`, the IC50 is > 20 µM (inactive). In the case of `CCc1nnc(NC(=O)c2cc(-c3ccc(C)o3)nc3ccccc23)s1` it was > 20 µM (inactive); in that of `COc1ccc(NC(=O)c2cc(-c3ccc(C)o3)nc3ccccc23)cc1`, > 20 µM (inactive).

Regarding `CCC(=O)Nc1nnc(Cc2ccccc2)s1`, the IC50 is > 20 µM (inactive). In the case of `CCCCn1c(N)c(N(CCOC)C(=O)c2cc(-c3ccco3)nc3ccccc23)c(=O)[nH]c1=O` it was > 20 µM (inactive). The same measure for `CN(CC(=O)Nc1ccc(F)cc1)C(=O)c1cc(-c2ccco2)nc2ccccc12`: > 20 µM (inactive).

The values above are taken from PubChem BioAssay AID493086 (The Scripps Research Institute Molecular Screening Center, 2011).
